In PubChem BioAssay AID651867 (The Scripps Research Institute Molecular Screening Center, 2012):

Molecular target: Protein-arginine deiminase type-4 (Homo sapiens) (UniProt Q9UM07)
Test: PubChem AID 651867
Conditions: recombinant PAD4, BAEE citrulline colorimetric, time-dependent inactivation; at 10 µM; hits give high values

Chain of Protein-arginine deiminase type-4 (Homo sapiens) (Q9UM07 whole entry, looked up): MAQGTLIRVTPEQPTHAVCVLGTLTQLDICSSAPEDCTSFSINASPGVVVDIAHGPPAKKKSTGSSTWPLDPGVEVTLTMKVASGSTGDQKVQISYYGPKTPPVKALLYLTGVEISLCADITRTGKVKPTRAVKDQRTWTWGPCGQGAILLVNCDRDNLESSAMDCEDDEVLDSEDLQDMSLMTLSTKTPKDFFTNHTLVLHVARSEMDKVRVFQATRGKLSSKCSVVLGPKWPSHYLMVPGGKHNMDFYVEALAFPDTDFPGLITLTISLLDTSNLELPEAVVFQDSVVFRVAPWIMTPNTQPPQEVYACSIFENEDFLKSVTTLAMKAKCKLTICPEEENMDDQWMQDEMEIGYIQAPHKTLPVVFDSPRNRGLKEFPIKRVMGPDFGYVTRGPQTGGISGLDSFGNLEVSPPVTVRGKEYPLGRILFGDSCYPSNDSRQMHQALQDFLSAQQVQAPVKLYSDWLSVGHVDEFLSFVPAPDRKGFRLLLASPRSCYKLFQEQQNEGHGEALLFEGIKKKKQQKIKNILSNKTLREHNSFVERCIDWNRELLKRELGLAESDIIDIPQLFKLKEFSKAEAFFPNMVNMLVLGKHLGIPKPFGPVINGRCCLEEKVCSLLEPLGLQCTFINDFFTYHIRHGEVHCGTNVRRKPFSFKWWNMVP

- kinact/KI: 88.3 M⁻¹ s⁻¹
SMILES: NC1=CC(=O)c2ccc(-c3cccc(C(=O)O)n3)nc2C1=O
